{"source": "patent US20260115216A1", "about": "“NUCLEIC ACID PRECURSOR” (priority 2022, published 2026)", "key": {"[1]": {"tested_on": "HDF75 (human dermal fibroblasts derived from a person)", "assay": "Effect of ATP prodrug-neo on intracellular ATP concentration (Test Example 9)", "type": "cell-based", "conditions": "HDF75, varying concentrations, 24 hours, ATP per cell", "method": "HDF75 (human dermal fibroblasts derived from a person) (Cell Applications, Inc.) were seeded at 5000 cells per well in the human dermal fibroblast growth medium, and after 3 hours, a solution of the ATP prodrug-neo prepared in Example 2 in DMSO at varying concentrations was added to the well. After 24 hours, the amount of DNA was measured using the picogreen and converted to cell count from a calibration curve separately created. The amount of ATP was quantified using the ATP measurement kit (Dojin Chemical), and the amount of ATP per cell was calculated."}, "nematodes [2]": {"tested_on": "nematodes", "assay": "Lifespan extension in model organism (nematode), survival analysis (Test Examples 8 and 10)", "type": "in vivo", "conditions": "for average lifespan extended compared to the control: 1% DMSO", "method": "The ATP prodrug prepared in Example 1, dissolved in DMSO, was added to the liquid Nematode Growth Medium (NGM) that had been sterilized and maintained at 60° C. at a final concentration of 100 μM, so as to prepare an ATP prodrug-containing NGM plate. At this time, the final concentration of DMSO in the NGM was adjusted to 1%. […] Onto the surface of the NGM plate used immediately before survival analysis, the bacterium Escherichia coli strain OP50 stirred in M9 buffer was applied as food for the nematodes.\nThirty-five nematodes were transferred to the NGM plate, after performing age synchronization. The nematodes were transferred to a new NGM plate every day from the first day of adulthood (the third day) to the seventh day, and every two days from the eighth day until the nematodes died. At the same time, the numbers of living nematodes and dead nematodes were recorded. Survival status of the nematodes was determined by whether they reacted when touched. Average lifespan was calculated from the results obtained, and the average lifespans were compared to determine the lifespan extension rate of the nematodes. This experiment was conducted four times to confirm the reproducibility (In cases of both with and without the addition of proATP, n=114).\nATP prodrug-neo dissolved in DMSO, was added to the liquid Nematode Growth Medium (NGM) that had been sterilized and maintained at 60° C. at a final concentration of 200 µM, so as to prepare an ATP prodrug-neo-containing NGM plate. At this time, the final concentration of DMSO in the NGM was adjusted to 1%. […]\nThirty-five nematodes were transferred to the NGM plate, after performing age synchronization. […] At the same time, the numbers of living nematodes and dead nematodes were recorded. Survival status of the nematode was determined by whether they reacted when touched. Average lifespan was calculated from the results obtained, and the average lifespans were compared to determine the lifespan extension rate of the nematodes. […]"}, "[3]": {"tested_on": "NHDF (normal human dermal fibroblasts)", "assay": "Cytotoxicity by LDH release (Test Example 5)", "type": "cell-based", "conditions": "24 hours", "method": "NHDF (normal human dermal fibroblasts) were seeded at 5000 cells per well in DMEM/F12 with 10% FBS and 1% penicillin/streptomycin, and after 3 hours, a solution of the ATP prodrug prepared in Example 1 in DMSO at varying concentrations was added to the wells. After 24 hours, the release of the cytotoxicity marker, lactate dehydrogenase (LDH), was quantified using the LDH assay kit (Dojin Chemical), and the cytotoxicity was calculated."}, "[4]": {"tested_on": "Human Dermal Fibroblasts (HDF) derived from human", "assay": "Intracellular ATP level in young and aged human dermal fibroblasts (Test Example 4 A)", "type": "cell-based", "conditions": "50 μM, 24 hours", "method": "(§1) Human Dermal Fibroblasts (HDF) derived from human (Toyobo) were seeded at 5000 cells/well in DMEM low glucose, 10% FBS, and 1% penicillin/streptomycin, and three hours later, the ATP prodrug dissolved in DMSO was added at either 0 or 50 μM. (A) The sample was incubated for 24 hours. The amount of DNA was measured using picogreen, and converted to cell count from a calibration curve separately created. The ATP level was quantified using the ATP measurement kit (Dojin Chemical), and the ATP level per cell was calculated. (B) 75 μM of the ATP prodrug was added to the HDF derived from human, and the medium was replaced with serum-free medium comprising 200 μM of hydrogen peroxide after 24 hours, followed by incubating the mixture for 6 hours. After 6 hours, the cells were washed, and the cell numbers were compared using the WST-8 kit."}, "[5]": {"tested_on": "Human liver cancer cells (HepG2)", "assay": "Intracellular ATP level in liver cancer cells (Test Example 6)", "type": "cell-based", "conditions": "HepG2 (cultured cells), varying concentrations, 24 hours", "method": "Human liver cancer cells (HepG2) were seeded at 5000 cells per well in DMEM with 10% FBS and 1% penicillin/streptomycin, and after 3 hours, a solution of the ATP prodrug prepared in Example 1 in DMSO at varying concentrations was added to the wells. After 24 hours, the amount of DNA was measured using picogreen, and converted to cell count based on a calibration curve separately created. The ATP level was quantified using the ATP measurement kit (Dojin Chemical), resulting in the ATP level per cell."}, "MCF7 cells": {"tested_on": "MCF7 cells", "assay": "Effect of ATP analogs on intracellular ATP concentration in MCF7 cells (Test Example 2)", "type": "cell-based, human", "conditions": "MCF7, 100 μM, one day and two days, normalized to DNA, compared with adenosine, AMP", "method": "Adenosine, AMP, ATP, and the ATP prodrug were added to the culture medium of MCF7 cells (5000 cells/well) at a concentration of 100 μM, and, one day and two days later, ATP was measured, followed by normalizing the results to the DNA amounts."}, "nematodes [6]": {"tested_on": "nematodes", "assay": "ATP level in model organism (nematode)", "type": "in vivo", "conditions": "nematodes on NGM plate with 100 μM ATP prodrug, seventh day of cultivation", "method": "The culture of the nematodes and the addition of the ATP prodrug to the nematodes were conducted under the same conditions as those in the survival analysis. On the seventh day of cultivation, five nematodes were collected for each condition, totaling twenty-five nematodes, and were transferred to a 24-well plate containing PBS, followed by conducting ultrasonic disruption while kept on ice for one minute. Then, the crushed liquid was collected into a microtube, and after centrifugation (15,000 rpm, 30 minutes, 4° C.), the supernatant was collected. Amount of the ATP in the supernatant was quantified using the ATP measurement kit (Dojin Chemical), and the amount of the ATP per nematode was calculated."}, "Human fibroblasts (NHDF)": {"tested_on": "Human fibroblasts (NHDF)", "assay": "Effect on intracellular ATP concentration using normal cells (Test Example 3)", "type": "cell-based", "conditions": "200 μM ATP prodrug, one day, ATP per cell", "method": "Human fibroblasts (NHDF) (Takara Bio) were seeded at 5000 cells per well in DMEM low glucose, 10% FBS, and 1% penicillin/streptomycin, and, after 3 hours, a solution of the ATP prodrug prepared in Example 1 in DMSO at varying concentrations was added to the wells. One day later, the amount of DNA was measured using picogreen, and converted to cell count from a calibration curve separately created. The ATP level was quantified using the ATP measurement kit (Dojin Chemical), and the ATP level per cell was calculated."}, "[7]": {"tested_on": "AMP-activated protein kinase (AMPK)", "assay": "Intracellular ATP levels using AMPK inhibitor (Test Example 7)", "conditions": "normal human dermal fibroblasts, ATP prodrug 100 μM, 24 hours"}, "normal pig liver cells": {"tested_on": "normal pig liver cells", "assay": "Intracellular ATP level in primary liver cells (Test Example 6)", "type": "cell-based", "conditions": "varying concentrations, 24 hours", "method": "In addition to this study, normal pig liver cells were seeded at 5000 cells per well in the liver cell differentiation environment (Hepatp-STIM, 1 μg/100 mL EGF, 1% penicillin/streptomycin), and after 3 hours, a solution of the ATP prodrug in DMSO at varying concentrations was added to the wells. The DNA amount was measured using picogreen 24 hours later. The ATP level was quantified using the ATP measurement kit (Dojin Chemical), and the ATP level was provided."}, "[8]": {"tested_on": "MCF7 (human breast cancer cells)", "assay": "Effect of ATP prodrug on intracellular ATP concentration in MCF7 cells (Test Example 1)", "type": "cell-based", "conditions": "MCF7, 100 μM ATP prodrug, after 3 days, ATP per cell", "method": "MCF7 (human breast cancer cells) (RIKEN BRC) were seeded at 5000 cells per well in DMEM low glucose, 10% FBS, and 1% penicillin/streptomycin, and, after 3 hours, solutions of the ATP prodrug prepared in Example 1 in DMSO at varying concentrations were added to those wells. Three days later, the amounts of DNA were measured using picogreen, and converted to cell counts from a calibration curve separately created. The amount of ATP was quantified using the ATP measurement kit (Dojin Chemical), and the amount of ATP per cell was calculated."}, "HDF derived from human": {"tested_on": "HDF derived from human", "assay": "Oxidative stress load (hydrogen peroxide) on aged cells, cell number by WST-8 (Test Example 4 B)", "type": "cell-based", "conditions": "HDF from person, 75 μM ATP prodrug 24 hours, then 200 μM hydrogen peroxide 6 hours", "method": "as §1"}, "nematodes [9]": {"tested_on": "nematodes", "conditions": "nematode, literature values of other drugs; cited from earlier work"}, "[10]": {"conditions": "cited from earlier work"}}, "note": "Where two headings read alike, the source gives them in different places."}
{"smiles": "C[C@H](NP(=O)(N[C@@H](C)C(=O)OCC(C)(C)C)OC[C@H]1O[C@@H](n2cnc3c(N)ncnc32)C(O)C1O)C(=O)OCC(C)(C)C", "note": "(stereo partly shown) [ATP prodrug-neo]", "values": [{"measurement": "intracellular ATP levels", "setting": "[1]", "value": "increased"}, {"measurement": "average lifespan extended compared to the control", "setting": "nematodes [2]; nematodes on NGM plate with 200 µM ATP prodrug-neo", "value": "approximately 26%"}]}
{"smiles": "CCC(CC)COC(=O)[C@H](C)N[P@](=O)(OC[C@H]1O[C@@H](n2cnc3c(N)ncnc32)[C@H](O)[C@@H]1O)Oc1ccccc1", "note": "[ATP prodrug, (S)-2-Ethylbutyl 2-(((S)-(((2R,3S,4R,5R)-5-(6-amino-9H-purine-9-yl)-3,4-dihydroxy-tetrahydrofuran-2-yl)methoxy) (phenoxy)phosphoryl)amino)propanoate]", "values": [{"measurement": "amount of LDH release", "setting": "[3]; 256 μM", "value": "remains low"}, {"measurement": "cytotoxicity to cells", "setting": "[3]; LDH assay", "value": "low cytotoxicity"}, {"measurement": "intracellular ATP levels", "setting": "[4]", "value": "increased"}, {"measurement": "intracellular ATP levels", "setting": "[5]", "value": "increased"}, {"measurement": "intracellular ATP level", "setting": "MCF7 cells", "value": "increased"}, {"measurement": "amount of ATP per nematode higher than control", "setting": "nematodes [6]", "value": "approximately 23%"}, {"measurement": "intracellular ATP level compared to the control (0 μM)", "setting": "Human fibroblasts (NHDF)", "value": 1.7, "unit": "times"}, {"measurement": "AMPK activation (suggested from inhibitor experiment)", "setting": "[7]", "value": "activates the AMPK"}, {"measurement": "intracellular ATP levels", "setting": "normal pig liver cells", "value": "increased"}, {"measurement": "intracellular ATP amount compared to the control level", "setting": "[8]", "value": "approximately 2.5 times"}, {"measurement": "Lifespan Extension Rate", "setting": "nematodes [2]; nematode, the present invention", "value": 133, "unit": "%"}, {"measurement": "average lifespan extended compared to the control", "setting": "nematodes [2]; nematodes on NGM plate with 100 μM ATP prodrug", "value": "approximately 33%"}, {"measurement": "cell number under oxidative stress", "setting": "HDF derived from human", "value": "suppresses the decrease in cell number"}]}
{"smiles": "CN(C)C(=N)N=C(N)N", "note": "[Metformin]", "values": [{"measurement": "Lifespan Extension Rate", "setting": "nematodes [9]", "value": 127, "unit": "%"}]}
{"smiles": "Oc1ccc(C=Cc2cc(O)cc(O)c2)cc1", "note": "[Resveratrol]", "values": [{"measurement": "Lifespan Extension Rate", "setting": "nematodes [9]", "value": 110, "unit": "%"}]}
{"smiles": "Nc1ncnc2c1ncn2[C@@H]1O[C@H](COP(=O)(O)OP(=O)(O)OP(=O)(O)O)[C@@H](O)[C@H]1O", "note": "[ATP, adenosine triphosphate]", "values": [{"measurement": "half-life in blood", "setting": "[10]", "value": "about 10 seconds"}]}
{"smiles": "NC(=O)c1cccnc1", "note": "[Nicotinamide]", "values": [{"measurement": "Lifespan Extension Rate", "setting": "nematodes [9]", "value": 116, "unit": "%"}]}
